Laboratory results reported in US12655116B2, “Substituted isophthalic acid diamides” (Bayer Aktiengesellschaft, priority 2020, dated 2026).

Legend:
SETVI [1] = assay: Pre-emergence herbicidal action against SETVI; type: in vivo, Setaria viridis
Outline: (§1)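 Sandy loam pots, seeds covered with soil, then surface-treated with WP or EC formulations at 600–800 l/ha water plus 0.2% wetting agent. Greenhouse, 3 weeks. Percent damage vs untreated controls.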

STEME [2] = assay: Post-emergence herbicidal action against STEME; type: in vivo, Stellaria media
Outline: (§2)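 Visual % rating (0% = as untreated, 100% = dead) ~3 wk after spraying one-leaf-stage plants grown in sandy loam; WP/EC in water at 600–800 l/ha, 0.2% wetting agent.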

DIGSA [3] = assay: Pre-emergence herbicidal action against DIGSA; type: in vivo, Digitaria sanguinalis
Outline: as §1

AVEFA [4] = assay: Post-emergence herbicidal action against AVEFA; type: in vivo, Avena fatua; settings: 20 g/ha, visual assessment about 3 weeks after treatment, 100% = plants have died, 0% = like control plants
Outline: as §2

DIGSA [5] = assay: Post-emergence herbicidal action against DIGSA; type: in vivo, Digitaria sanguinalis
Outline: as §2

HORMU [6] = assay: Post-emergence herbicidal action against HORMU; type: in vivo, Hordeum murinum; settings: Hordeum murinum, 504 h, dosage 20 g/ha
Outline: as §2

ECHCG [7] = assay: Post-emergence herbicidal action against ECHCG; type: in vivo, Echinochloa crus-galli
Outline: as §2

ABUTH [8] = assay: Pre-emergence herbicidal action against ABUTH; type: in vivo, Abutilon theophrasti
Outline: as §1

ABUTH [9] = assay: Post-emergence herbicidal action against ABUTH; type: in vivo, Abutilon theophrasti; settings: visual assessment about 3 weeks after treatment vs untreated controls
Outline: as §2

POLCO [10] = assay: Post-emergence herbicidal action against POLCO; type: in vivo, Polygonum convolvulus; settings: Fallopia convolvulus, 504 h, dosage 20 g/ha
Outline: as §2

AVEFA [11] = assay: Pre-emergence herbicidal action against AVEFA; type: in vivo, Avena fatua; settings: Avena fatua, 504 h; 80 g/ha, pre-emergence
Outline: as §1

VERPE [12] = assay: Post-emergence herbicidal action against VERPE; type: in vivo, Veronica persica; settings: Veronica persica, 504 h, 20 g/ha
Outline: as §2

AMARE [13] = assay: Post-emergence herbicidal action against AMARE; type: in vivo, Amaranthus retroflexus; settings: 20 g/ha, visual assessment about 3 weeks after treatment, 100% = plants have died, 0% = like control plants
Outline: as §2

VIOTR [14] = assay: Pre-emergence herbicidal action against VIOTR; type: in vivo, Viola tricolor
Outline: as §1

MATIN [15] = assay: Post-emergence herbicidal action against MATIN; type: in vivo, Matricaria inodora
Outline: as §2

ECHCG [16] = assay: Pre-emergence herbicidal action against ECHCG; type: in vivo, Echinochloa crus-galli
Outline: as §1

PHBPU [17] = assay: Pre-emergence herbicidal action against PHBPU; type: in vivo, Pharbitis purpurea; settings: Ipomoea purpurea, 504 h, dosage 80 g/ha
Outline: as §1

ALOMY [18] = assay: Post-emergence herbicidal action against ALOMY; type: in vivo, Alopecurus myosuroides; settings: dosage 20 g/ha, visual assessment about 3 weeks after treatment vs untreated controls
Outline: as §2

VERPE [19] = assay: Pre-emergence herbicidal action against VERPE; type: in vivo, Veronica persica; settings: Veronica persica, 504 h
Outline: as §1

PHBPU [20] = assay: Post-emergence herbicidal action against PHBPU; type: in vivo, Pharbitis purpurea; settings: dosage 20 g/ha
Outline: as §2

VIOTR [21] = assay: Post-emergence herbicidal action against VIOTR; type: in vivo, Viola tricolor
Outline: as §2

MATIN [22] = assay: Pre-emergence herbicidal action against MATIN; type: in vivo, Matricaria inodora; settings: Tripleurospermum inodorum, 504 h
Outline: as §1

SETVI [23] = assay: Post-emergence herbicidal action against SETVI; type: in vivo, Setaria viridis
Outline: as §2

AMARE [24] = assay: Pre-emergence herbicidal action against AMARE; type: in vivo, Amaranthus retroflexus
Outline: as §1

HORMU [25] = assay: Pre-emergence herbicidal action against HORMU; type: in vivo, Hordeum murinum; settings: Hordeum murinum, 504 h; 80 g/ha, pre-emergence
Outline: as §1

STEME [26] = assay: Pre-emergence herbicidal action against STEME; type: in vivo, Stellaria media
Outline: as §1

ALOMY [27] = assay: Pre-emergence herbicidal action against ALOMY; type: in vivo, Alopecurus myosuroides; settings: 80 g/ha, pre-emergence, scored visually after 3 weeks vs untreated controls (100% = plants have died, 0% = like control plants)
Outline: as §1

LOLRI [28] = assay: Pre-emergence herbicidal action against LOLRI; type: in vivo, Lolium rigidum; settings: Lolium rigidum, 504 h, 80 g/ha
Outline: as §1

LOLRI [29] = assay: Post-emergence herbicidal action against LOLRI; type: in vivo, Lolium rigidum; settings: dosage 20 g/ha
Protocol: Seeds of monocotyledonous and dicotyledonous weed and crop plants are laid out in sandy loam soil in wood-fiber pots, covered with soil and cultivated in a greenhouse under good growth conditions. 2 to 3 weeks after sowing, the test plants are treated at the one-leaf stage. The compounds of the invention, formulated in the form of wettable powders (WP) or as emulsion concentrates (EC), are then sprayed onto the green parts of the plants in the form of an aqueous suspension or emulsion at a water application rate equivalent to 600 to 800 l/ha, with addition of 0.2% wetting agent. After the test plants have been left to stand in the greenhouse under optimal growth conditions for about 3 weeks, the action of the preparations is assessed visually in comparison to untreated controls (herbicidal action in percent (%): 100% activity=the plants have died, 0% activity=like control plants). […] The tables below illustrate, in an illustrative manner, the post-emergence herbicidal action of the compounds of the invention, the herbicidal activity being stated in percent.

POLCO [30] = assay: Pre-emergence herbicidal action against POLCO; type: in vivo, Polygonum convolvulus; settings: dosage 80 g/ha
Outline: as §1

[31] = Setaria viridis, 504 h, dosage 20 g/ha
[32] = 80 g/ha, scored visually after 3 weeks vs untreated controls (100% = plants have died, 0% = like control plants)

Cc1c(C(=O)Nc2nnnn2C)ccc(C(F)(F)F)c1C(=O)NC1CC1 [Example 1-27]
pest or weed control at 20 g/ha (SETVI [1]; [31]): 100% | pest or weed control at 80 g/ha (SETVI [1]; Setaria viridis, 504 h, dosage 80 g/ha): 100% | pest or weed control at 20 g/ha (STEME [2]; Stellaria media, 504 h, 20 g/ha): 100% | pest or weed control at 5 g/ha (STEME [2]; Stellaria media, 504 h, dosage 5 g/ha): 100% | pest or weed control at 20 g/ha (DIGSA [3]; Digitaria sanguinalis, 504 h, dosage 20 g/ha): 100% | pest or weed control at 80 g/ha (DIGSA [3]; Digitaria sanguinalis, 504 h, dosage 80 g/ha): 100% | pest or weed control at 20 g/ha (AVEFA [4]; Avena fatua, 504 h): 100% | pest or weed control at 5 g/ha (DIGSA [5]; Digitaria sanguinalis, 504 h, 5 g/ha): 90% | pest or weed control at 20 g/ha (DIGSA [5]; Digitaria sanguinalis, 504 h, 20 g/ha): 100% | pest or weed control at 20 g/ha (HORMU [6]): 80% | pest or weed control at 20 g/ha (ECHCG [7]; Echinochloa crus-galli, 504 h, dosage 20 g/ha): 80% | pest or weed control at 80 g/ha (ABUTH [8]; Abutilon theophrasti, 504 h, 80 g/ha, scored visually after 3 weeks vs untreated controls (100% = plants have died, 0% = like control plants)): 100% | pest or weed control at 20 g/ha (ABUTH [8]; Abutilon theophrasti, 504 h, dosage 20 g/ha, scored visually after 3 weeks vs untreated controls, 100% = plants have died, 0% = like control plants, read-out: Pre-emergence action against ABUTH (herbicidal activity in percent)): 100% | pest or weed control at 5 g/ha (ABUTH [9]; Abutilon theophrasti, 504 h, dosage 5 g/ha): 100% | pest or weed control at 20 g/ha (ABUTH [9]; Abutilon theophrasti, 504 h, dosage 20 g/ha): 100% | pest or weed control at 20 g/ha (POLCO [10]): 90% | pest or weed control at 80 g/ha (AVEFA [11]): 100% | pest or weed control at 20 g/ha (VERPE [12]): 100% | pest or weed control at 20 g/ha (AMARE [13]; Amaranthus retroflexus, 504 h): 100% | pest or weed control at 20 g/ha (VIOTR [14]; Viola tricolor, 504 h, dosage 20 g/ha): 100% | pest or weed control at 80 g/ha (VIOTR [14]; Viola tricolor, 504 h, dosage 80 g/ha): 100% | pest or weed control at 5 g/ha (MATIN [15]; Tripleurospermum inodorum, 504 h, dosage 5 g/ha): 80% | pest or weed control at 20 g/ha (MATIN [15]; Tripleurospermum inodorum, 504 h, dosage 20 g/ha): 100% | pest or weed control at 80 g/ha (ECHCG [16]; Echinochloa crus-galli, 504 h, 80 g/ha): 100% | pest or weed control at 80 g/ha (PHBPU [17]): 100% | pest or weed control at 20 g/ha (ALOMY [18]; Alopecurus myosuroides, 504 h): 100% | pest or weed control at 20 g/ha (VERPE [19]; dosage 20 g/ha): 80% | pest or weed control at 80 g/ha (VERPE [19]; dosage 80 g/ha): 90% | pest or weed control at 20 g/ha (PHBPU [20]; Ipomoea purpurea, 504 h): 90% | pest or weed control at 5 g/ha (VIOTR [21]; Viola tricolor, 504 h, 5 g/ha): 100% | pest or weed control at 20 g/ha (VIOTR [21]; Viola tricolor, 504 h, 20 g/ha): 100% | pest or weed control at 20 g/ha (MATIN [22]; dosage 20 g/ha): 100% | pest or weed control at 80 g/ha (MATIN [22]; dosage 80 g/ha): 100% | pest or weed control at 5 g/ha (SETVI [23]; Setaria viridis, 504 h, dosage 5 g/ha): 100% | pest or weed control at 20 g/ha (SETVI [23]; [31]): 100% | pest or weed control at 20 g/ha (AMARE [24]; Amaranthus retroflexus, 504 h, 20 g/ha, scored visually after 3 weeks vs untreated controls, 100% = plants have died, 0% = like control plants): 100% | pest or weed control at 80 g/ha (AMARE [24]; Amaranthus retroflexus, 504 h, 80 g/ha, scored visually after 3 weeks vs untreated controls, 100% = plants have died, 0% = like control plants): 100% | pest or weed control at 80 g/ha (HORMU [25]): 80% | pest or weed control at 20 g/ha (STEME [26]; Stellaria media, 504 h, dosage 20 g/ha): 90% | pest or weed control at 80 g/ha (STEME [26]; Stellaria media, 504 h, dosage 80 g/ha): 100% | pest or weed control at 80 g/ha (ALOMY [27]; Alopecurus myosuroides, 504 h): 90% | pest or weed control at 80 g/ha (LOLRI [28]): 80%

CCNC(=O)c1c(C(F)F)ccc(C(=O)Nc2nnco2)c1Cl [Example 5-123]
Pre-emergence action against SETVI in % (SETVI [1]; dosage 80 g/ha): 100% | Post-emergence action against STEME in % (STEME [2]; 20 g/ha): 90% | Post-emergence action against STEME in % (STEME [2]; dosage 5 g/ha): 90% | Post-emergence action against LOLRI in % (LOLRI [29]): 80% | Pre-emergence action against DIGSA in % (DIGSA [3]; dosage 20 g/ha): 100% | Pre-emergence action against DIGSA in % (DIGSA [3]; dosage 80 g/ha): 100% | Post-emergence action at 20 g/ha against AVEFA in % (AVEFA [4]): 80% | Post-emergence action against DIGSA in % (DIGSA [5]; 5 g/ha): 90% | Post-emergence action against DIGSA (DIGSA [5]; 20 g/ha): 90% | Pre-emergence action against POLCO in % (POLCO [30]): 80% | Post-emergence action against ECHCG in % (ECHCG [7]; dosage 5 g/ha): 90% | Post-emergence action against ECHCG in % (ECHCG [7]; dosage 20 g/ha): 90% | Pre-emergence action against ABUTH (herbicidal activity) (ABUTH [8]; [32]): 100% | Pre-emergence action against ABUTH (herbicidal activity in percent) (ABUTH [8]; dosage 20 g/ha, scored visually after 3 weeks vs untreated controls, 100% = plants have died, 0% = like control plants): 100% | Post-emergence action against ABUTH in % (ABUTH [9]; dosage 5 g/ha): 90% | Post-emergence action against ABUTH in % (ABUTH [9]; dosage 20 g/ha): 90% | Post-emergence action at 20 g/ha against AMARE in % (AMARE [13]): 90% | Pre-emergence action against VIOTR in % (VIOTR [14]; dosage 20 g/ha): 90% | Pre-emergence action against VIOTR in % (VIOTR [14]; dosage 80 g/ha): 100% | Post-emergence action against MATIN in % (MATIN [15]; dosage 20 g/ha): 80% | Pre-emergence action against ECHCG in % (ECHCG [16]; 20 g/ha): 90% | Pre-emergence action against ECHCG in % (ECHCG [16]; 80 g/ha): 100% | Post-emergence action against ALOMY in % (ALOMY [18]): 80% | Post-emergence action against PHBPU in % (PHBPU [20]): 80% | Post-emergence action against VIOTR in % (VIOTR [21]; 5 g/ha): 80% | Post-emergence action against VIOTR in % (VIOTR [21]; 20 g/ha): 90% | Post-emergence action against SETVI in % (SETVI [23]; dosage 5 g/ha): 80% | Post-emergence action against SETVI in % (SETVI [23]; dosage 20 g/ha): 80% | Pre-emergence action against AMARE in % (AMARE [24]; 20 g/ha, scored visually after 3 weeks vs untreated controls, 100% = plants have died, 0% = like control plants): 100% | Pre-emergence action against AMARE in % (AMARE [24]; [32]): 100% | Pre-emergence action against STEME in % (STEME [26]; dosage 20 g/ha): 90% | Pre-emergence action against STEME in % (STEME [26]; dosage 80 g/ha): 90% | Pre-emergence action against ALOMY (herbicidal activity) (ALOMY [27]): 80%
